Consider 11 compounds from patent US7447594B2, “Molecular cardiotoxicology modeling” (Ocimum Biosolutions, Inc., priority 2001, dated 2008).

For series [1] the following is noted: cited from earlier work.
The conditions of series [2]: cited from earlier work. The source holds these as a separate data set.
The conditions of series [3]: patients that do not have heart failure or use insulin; cited from earlier work.
Details of series [4]: species or system male Sprague-Dawley rats. The following applies: rat, in vivo, iv. Here is the method:
Amphotericin B is a polyene, antifungal antibiotic used to treat fungal infections. Its clinical utility is limited by its nephrotoxicity and cardiotoxicity.
The low and high dose level for each compound are provided in the chart below.
Heart • A sagittal cross-section containing portions of the two atria and of the two ventricles was preserved in 10% NBF. The remaining heart was frozen in liquid nitrogen and stored at ˜−80° C.

The conditions of series [5]: intravenous injection, four hours post-dose; cited from earlier work.
The conditions of series [6]: cited from earlier work; for myocardial necrosis: young and mature rats.
For series [7] the following is noted: normotensive rats; cited from earlier work.
The conditions of series [8]: rats 3 months to 2 years old, dosed over two days; cited from earlier work.
For series [9] the following is noted: of 19 women treated with cyclophosphamide, thiotepa, and carboplatin; cited from earlier work.
The conditions of series [10]: child, high-dose cyclophosphamide; cited from earlier work.
The conditions of series [11]: high-dose patients; cited from earlier work.
The conditions of series [12]: cited from earlier work. The source holds these as a separate data set.
The conditions of series [13]: rat, in vivo; cited from earlier work.
For series [14] the following is noted: cited from earlier work. This is another data set of the same source.
The conditions of series [15]: person, small quantity ingested; cited from earlier work.
Series [16] has as its system cellular glutathione. The following applies: cited from earlier work.

The structures appear in SMILES notation.

In the case of `C[C@H](CS)C(=O)N1CCC[C@H]1C(=O)O` [captopril], the “serum enzyme levels and white blood cell counts” value in [1] (captopril pre-treatment before adriamycin) is reported as “significant reduction in serum enzyme levels as well as restoration of white blood cell counts”.

Regarding `COc1cccc2c1C(=O)c1c(O)c3c(c(O)c1C2=O)C[C@@](O)(C(=O)CO)C[C@@H]3O[C@H]1C[C@H](N)[C@@H](O)[C@H](C)O1` [epirubicin], the “of these patients, deteriorated into congestive heart failure” value in series [2] (human, in vivo) is reported as 20%. Also, the “patients with a 25% relative reduction in left ventricular ejection fraction” value in series [2] (three years after epirubicin treatment, 120 patients) is reported as “Approximately 59%”.

Regarding `COc1cccc2c1C(=O)c1c(O)c3c(c(O)c1C2=O)C[C@@](O)(C(=O)CO)C[C@@H]3O[C@H]1C[C@H](N)[C@H](O)[C@H](C)O1` [adriamycin, doxorubicin], the “serum enzymes (myocardial toxicity)” value in [1] (rat, in vivo) is “elevation of serum enzymes such as aspartate transaminase, lactate dehydrogenase, and creatine phosphokinase”.

As for `CN(CCOc1ccc(CC2SC(=O)NC2=O)cc1)c1ccccn1` (centres unmarked) [rosiglitazone], the edema entry in series [3] is “moderate-to-severe edema”.

Turning to `C[C@@H]1[C@H](O)[C@@H](C)/C=C/C=C/C=C/C=C/C=C/C=C/C=C/[C@H](O[C@@H]2O[C@H](C)[C@@H](O)[C@H](N)[C@@H]2O)C[C@@H]2O[C@](O)(C[C@@H](O)C[C@@H](O)[C@H](O)CC[C@@H](O)C[C@@H](O)CC(=O)O[C@H]1C)C[C@H](O)[C@H]2C(=O)O` [amphotericin B], the cardiomyopathy entry in series [4] was “some early signs of cardiomyopathy”.

`NNc1nncc2ccccc12` [hydralazine]: in [5], the “early focal myocardial lesions (histopathology)” value is listed as “Lesions were observed”. Also, in series [6] (rat, in vivo), the “blood pressure and heart rate effects” value is “Hypotension and reflex tachycardia”. The myocardial necrosis result in series [6] was “Myocardial necrosis was observed in both age groups”.

As to `Nc1cc(N2CCCCC2)nc(N)[n+]1[O-]` [minoxidil], the cardiac enlargement result in [7] is “enlargement of the left ventricle, right ventricle, and interventricular septum”. In addition, in series [8], the heart lesions entry was “interstitial hemorrhages at all dose levels”. For the same compound, the myocardial necrosis entry in series [6] was “Myocardial necrosis was observed in both age groups”.

Take `O=P1(N(CCCl)CCCl)NCCCO1` (centres unmarked) [cyclophosphamide]: the “patients who developed moderate congestive heart failure” value in series [9] was “six”. Further, the cardiac findings entry in series [10] is “cardiac arrhythmias and intractable hypotension”. In addition, the “patients who died of congestive heart failure” value in [11] is on record as “Six”. Further, in series [12] (out of five patients who developed clinical cardiotoxicity), the “patients with clinical cardiotoxicity who were in the high-dose group” value was “four”. In series [12] (twice-daily high-dose treatment (174+/−34 mg/kg), within a week), the “left ventricular mass index” value is “increase in left ventricular mass index”.

With `CC(C)NCC(O)c1ccc(O)c(O)c1` (centres unmarked) [isoproterenol], in series [6], the myocardial necrosis entry is “Myocardial necrosis was observed in both age groups”.

Regarding `CC(C)(C)NCC(O)c1cc(Cl)c(N)c(Cl)c1` (centres unmarked) [clenbuterol], the muscle hypertrophy result in series [13] is “hypertrophy of the heart and latissimus dorsi muscle”. Besides, in [14] (in vivo), the aortic root dimensions entry was “significantly increased aortic root dimensions”. In series [14] (vs exercised and control mares), the left ventricular dimensions result is “significantly higher left ventricular internal dimension and interventricular septal wall thickness at end diastole”. The “clinical findings after ingestion” value in series [15] is “sustained sinus tachycardia, hypokalemia, hypophosphatemia, and hypomagnesemia”.

As for `C=CC=O` [Acrolein, acrolein], the cellular glutathione levels result in series [16] is recorded as “decrease cellular glutathione levels”.
